Measurements taken from the supplement of paper PMC6045584.
± gives the standard deviation of the averaged measurements.

Tests used:
17-AAG = compound: C=CCNC1=C2C[C@@H](C)C[C@H](OC)[C@H](O)[C@@H](C)/C=C(\C)[C@H](OC(N)=O)[C@@H](OC)/C=C\C=C(/C)C(=O)NC(=CC1=O)C2=O [17-AAG]; test: surviving fraction relative to DMSO-only wells; higher = less growth inhibition; conditions: exposure time: 5 days
In short: (§1)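 Surviving fraction is CellTiter-Glo luminescence divided by the median of wells given DMSO only. For this, log-phase tumour cell lines went into 384-well plates at 250–500 cells per well and, 24 hours later, into five days of continuous inhibitor exposure at 0.5, 1, 5, 10, 50, 100, 500 and 1000 nM. Lines were screened three times and retained only if replicate Pearson r >0.7 and median Z' >0.3.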

SALINOMYCIN = compound: CC[C@@H](C(=O)[C@@H](C)[C@@H](O)[C@H](C)[C@@H]1O[C@@H]([C@@H](CC)C(=O)O)CC[C@@H]1C)[C@H]1O[C@]2(C=C[C@@H](O)[C@]3(CC[C@@](C)([C@H]4CC[C@](O)(CC)[C@H](C)O4)O3)O2)[C@H](C)C[C@@H]1C [SALINOMYCIN]; test: as above; conditions: exposure time: 5 days
In short: as §1

Test System: SUM159 BREAST
- surviving fraction (17-AAG; 0.5 nM): 1.02 ± 0.087
- surviving fraction (17-AAG; 1 nM): 0.998 ± 0.046
- surviving fraction (17-AAG; 5 nM): 0.993 ± 0.062
- surviving fraction (17-AAG; 10 nM): 0.946 ± 0.044
- surviving fraction (17-AAG; 50 nM): 0.0997 ± 0.0055
- surviving fraction (17-AAG; 100 nM): 0.0537 ± 0.0086
- surviving fraction (17-AAG; 500 nM): 0.053 ± 0.0046
- surviving fraction (17-AAG; 1000 nM): 0.0527 ± 0.01
- surviving fraction (SALINOMYCIN; 0.5 nM): 0.979 ± 0.033
- surviving fraction (SALINOMYCIN; 1 nM): 0.92 ± 0.13
- surviving fraction (SALINOMYCIN; 5 nM): 0.865 ± 0.25
- surviving fraction (SALINOMYCIN; 10 nM): 0.934 ± 0.12
- surviving fraction (SALINOMYCIN; 50 nM): 0.648 ± 0.14
- surviving fraction (SALINOMYCIN; 100 nM): 0.475 ± 0.18
- surviving fraction (SALINOMYCIN; 500 nM): 0.32 ± 0.088
- surviving fraction (SALINOMYCIN; 1000 nM): 0.268 ± 0.092

Test System: SYO1 SYNOVIAL
- surviving fraction (17-AAG; 0.5 nM): 0.8369 ± 0.0068
- surviving fraction (17-AAG; 1 nM): 0.819 ± 0.049
- surviving fraction (17-AAG; 5 nM): 0.8483 ± 0.0038
- surviving fraction (17-AAG; 10 nM): 0.8 ± 0.038
- surviving fraction (17-AAG; 50 nM): 0.488 ± 0.042
- surviving fraction (17-AAG; 100 nM): 0.183 ± 0.012
- surviving fraction (17-AAG; 500 nM): 0.0407 ± 0.0017
- surviving fraction (17-AAG; 1000 nM): 0.0322 ± 0.0014
- surviving fraction (SALINOMYCIN; 0.5 nM): 0.905 ± 0.038
- surviving fraction (SALINOMYCIN; 1 nM): 0.832 ± 0.089
- surviving fraction (SALINOMYCIN; 5 nM): 0.876 ± 0.056
- surviving fraction (SALINOMYCIN; 10 nM): 0.475 ± 0.14
- surviving fraction (SALINOMYCIN; 50 nM): 0.949 ± 0.04
- surviving fraction (SALINOMYCIN; 100 nM): 0.804 ± 0.1
- surviving fraction (SALINOMYCIN; 500 nM): 0.293 ± 0.02
- surviving fraction (SALINOMYCIN; 1000 nM): 0.117 ± 0.028

Test System: T47D BREAST
- surviving fraction (17-AAG; 0.5 nM): 0.943 ± 0.058
- surviving fraction (17-AAG; 1 nM): 0.914 ± 0.035
- surviving fraction (17-AAG; 5 nM): 0.944 ± 0.011
- surviving fraction (17-AAG; 10 nM): 0.958 ± 0.046
- surviving fraction (17-AAG; 50 nM): 0.928 ± 0.023
- surviving fraction (17-AAG; 100 nM): 0.747 ± 0.032
- surviving fraction (17-AAG; 500 nM): 0.4288 ± 0.004
- surviving fraction (17-AAG; 1000 nM): 0.425 ± 0.0062
- surviving fraction (SALINOMYCIN; 0.5 nM): 1 ± 0.034
- surviving fraction (SALINOMYCIN; 1 nM): 1.017 ± 0.0096
- surviving fraction (SALINOMYCIN; 5 nM): 0.983 ± 0.04
- surviving fraction (SALINOMYCIN; 10 nM): 0.898 ± 0.047
- surviving fraction (SALINOMYCIN; 50 nM): 1.07 ± 0.015
- surviving fraction (SALINOMYCIN; 100 nM): 1.07 ± 0.046
- surviving fraction (SALINOMYCIN; 500 nM): 0.891 ± 0.041
- surviving fraction (SALINOMYCIN; 1000 nM): 0.631 ± 0.018

Test System: U2OS BONE
- surviving fraction (17-AAG; 0.5 nM): 0.943 ± 0.049
- surviving fraction (17-AAG; 1 nM): 0.9303 ± 0.0058
- surviving fraction (17-AAG; 5 nM): 0.991 ± 0.018
- surviving fraction (17-AAG; 10 nM): 0.886 ± 0.05
- surviving fraction (17-AAG; 50 nM): 0.627 ± 0.0092
- surviving fraction (17-AAG; 100 nM): 0.143 ± 0.004
- surviving fraction (17-AAG; 500 nM): 0.0713 ± 0.0021
- surviving fraction (17-AAG; 1000 nM): 0.0763 ± 0.0032
- surviving fraction (SALINOMYCIN; 0.5 nM): 1.01 ± 0.022
- surviving fraction (SALINOMYCIN; 1 nM): 1.02 ± 0.04
- surviving fraction (SALINOMYCIN; 5 nM): 1.01 ± 0.016
- surviving fraction (SALINOMYCIN; 10 nM): 1.015 ± 0.0081
- surviving fraction (SALINOMYCIN; 50 nM): 1.06 ± 0.019
- surviving fraction (SALINOMYCIN; 100 nM): 1.04 ± 0.029
- surviving fraction (SALINOMYCIN; 500 nM): 0.783 ± 0.024
- surviving fraction (SALINOMYCIN; 1000 nM): 0.538 ± 0.035

Test System: VCAP PROSTATE
- surviving fraction (17-AAG; 0.5 nM): 0.94 ± 0.075
- surviving fraction (17-AAG; 1 nM): 0.969 ± 0.054
- surviving fraction (17-AAG; 5 nM): 1.12 ± 0.17
- surviving fraction (17-AAG; 10 nM): 1.03 ± 0.12
- surviving fraction (17-AAG; 50 nM): 0.683 ± 0.066
- surviving fraction (17-AAG; 100 nM): 0.19 ± 0.018
- surviving fraction (17-AAG; 500 nM): 0.167 ± 0.016
- surviving fraction (17-AAG; 1000 nM): 0.183 ± 0.03
- surviving fraction (SALINOMYCIN; 0.5 nM): 1.07 ± 0.18
- surviving fraction (SALINOMYCIN; 1 nM): 1.04 ± 0.12
- surviving fraction (SALINOMYCIN; 5 nM): 1.09 ± 0.074
- surviving fraction (SALINOMYCIN; 10 nM): 1.14 ± 0.053
- surviving fraction (SALINOMYCIN; 50 nM): 1.08 ± 0.13
- surviving fraction (SALINOMYCIN; 100 nM): 1.04 ± 0.023
- surviving fraction (SALINOMYCIN; 500 nM): 0.245 ± 0.044
- surviving fraction (SALINOMYCIN; 1000 nM): 0.144 ± 0.0072

Test System: VP229 BREAST
- surviving fraction (17-AAG; 0.5 nM): 0.808 ± 0.1
- surviving fraction (17-AAG; 1 nM): 0.782 ± 0.031
- surviving fraction (17-AAG; 5 nM): 0.842 ± 0.076
- surviving fraction (17-AAG; 10 nM): 0.773 ± 0.085
- surviving fraction (17-AAG; 50 nM): 0.641 ± 0.089
- surviving fraction (17-AAG; 100 nM): 0.387 ± 0.042
- surviving fraction (17-AAG; 500 nM): 0.101 ± 0.013
- surviving fraction (17-AAG; 1000 nM): 0.0917 ± 0.012
- surviving fraction (SALINOMYCIN; 0.5 nM): 0.949 ± 0.074
- surviving fraction (SALINOMYCIN; 1 nM): 0.907 ± 0.022
- surviving fraction (SALINOMYCIN; 5 nM): 1.04 ± 0.15
- surviving fraction (SALINOMYCIN; 10 nM): 0.891 ± 0.12
- surviving fraction (SALINOMYCIN; 50 nM): 0.831 ± 0.14
- surviving fraction (SALINOMYCIN; 100 nM): 0.52 ± 0.021
- surviving fraction (SALINOMYCIN; 500 nM): 0.139 ± 0.017
- surviving fraction (SALINOMYCIN; 1000 nM): 0.133 ± 0.015

Test System: YAMATO SYNOVIAL
- surviving fraction (17-AAG; 0.5 nM): 0.976 ± 0.059
- surviving fraction (17-AAG; 1 nM): 0.815 ± 0.022
- surviving fraction (17-AAG; 5 nM): 0.936 ± 0.084
- surviving fraction (17-AAG; 10 nM): 0.89 ± 0.039
- surviving fraction (17-AAG; 50 nM): 1.22 ± 0.039
- surviving fraction (17-AAG; 100 nM): 0.735 ± 0.064
- surviving fraction (17-AAG; 500 nM): 0.357 ± 0.0093
- surviving fraction (17-AAG; 1000 nM): 0.318 ± 0.0064
- surviving fraction (SALINOMYCIN; 0.5 nM): 1.11 ± 0.044
- surviving fraction (SALINOMYCIN; 1 nM): 0.733 ± 0.042
- surviving fraction (SALINOMYCIN; 5 nM): 0.984 ± 0.046
- surviving fraction (SALINOMYCIN; 10 nM): 0.216 ± 0.0092
- surviving fraction (SALINOMYCIN; 50 nM): 1.05 ± 0.08
- surviving fraction (SALINOMYCIN; 100 nM): 0.655 ± 0.029
- surviving fraction (SALINOMYCIN; 500 nM): 0.359 ± 0.013
- surviving fraction (SALINOMYCIN; 1000 nM): 0.133 ± 0.013

Test System: ZR751 BREAST
- surviving fraction (17-AAG; 0.5 nM): 1.17 ± 0.2
- surviving fraction (17-AAG; 1 nM): 1.04 ± 0.12
- surviving fraction (17-AAG; 5 nM): 0.994 ± 0.1
- surviving fraction (17-AAG; 10 nM): 0.618 ± 0.13
- surviving fraction (17-AAG; 50 nM): 0.22 ± 0.022
- surviving fraction (17-AAG; 100 nM): 0.228 ± 0.032
- surviving fraction (17-AAG; 500 nM): 0.213 ± 0.013
- surviving fraction (17-AAG; 1000 nM): 0.207 ± 0.024
- surviving fraction (SALINOMYCIN; 0.5 nM): 1.05 ± 0.086
- surviving fraction (SALINOMYCIN; 1 nM): 1.01 ± 0.11
- surviving fraction (SALINOMYCIN; 5 nM): 0.992 ± 0.14
- surviving fraction (SALINOMYCIN; 10 nM): 1.03 ± 0.092
- surviving fraction (SALINOMYCIN; 50 nM): 1.17 ± 0.15
- surviving fraction (SALINOMYCIN; 100 nM): 0.787 ± 0.089
- surviving fraction (SALINOMYCIN; 500 nM): 0.408 ± 0.055
- surviving fraction (SALINOMYCIN; 1000 nM): 0.289 ± 0.024
